Molecular target: hSTING(R232) (Homo sapiens, UniProt Q86WV6, H232R)
Assay: Luciferase reporter assay in HEK293T-hSTING-Luciferase cells, R232 (wild type) human STING
Format: cell-based
Settings: 20 hr stimulation, read-out: R232 human activity (EC50 range)
Description: Stable Cell Line Generation • a) Stable STING expressing cells—Stable HEK293T STING-expressing cell lines were generated using plasmids purchased from Invivogen, CA, USA, that contain STING cDNA cloned into the pUNO-1 vector under hEF1-HTLV promoter and containing the Blasticidin selection cassette. The plasmids hSTING(R232), hSTING(H232), hSTING(HAQ) were directly procured from Invivogen while hSTING (AQ) and hSTING (Q) were derived from hSTING(HAQ) and hSTING (R232) plasmids respectively by using a PCR based site directed mutagenesis method. These vectors were individually transfected into HEK293T cells using Lipofectamine (Invitrogen) and transfected cells were selected under Blasticidin selection. These transfected cells were further subjected to clonal selection using the limiting dilution method to obtain clonally pure populations of HEK cells transfected with each of the above mentioned human STING variants. Only those clones were selected in which ligand independent activation of STING was minimal. • b) Stable Luciferase reporter gene expressing cells—Stable HEK293T Luciferase reporter gene expressing cell lines were generated using pCDNA4 plasmids under an IRF-inducible promoter. This promoter is comprised of five tandem interferon-stimulated response elements (ISRE) fused to an ISG54 minimal promoter. This vector was transfected into HEK293T cells using Lipofectamine (Invitrogen) and transfected cells were selected under Zeocin selection. These transfected cells were further subjected to clonal selection using the limiting dilution method to obtain clonally pure populations of HEK cells transfected the Luciferase reporter construct. Only those clones were selected in which ligand independent induction of luciferase was minimal.
5×10^5 clonally selected HEK293T-hSTING-Luciferase cells were seeded in 384-well plates in growth medium and stimulated with novel compounds. After 20 hr of stimulation supernatant were removed and secretary reporter gene activity were measured using the Quanti-Luc detection system (Invivogen) on a Spectramax i3X luminometer.
In the tables below, EC50 value ranges for exemplary compounds are given.
All compounds were first tested in a primary screen to obtain a ‘fold-induction’ over baseline levels of protein activity.

hSTING(R232), sequence (Q86WV6 whole entry H232R): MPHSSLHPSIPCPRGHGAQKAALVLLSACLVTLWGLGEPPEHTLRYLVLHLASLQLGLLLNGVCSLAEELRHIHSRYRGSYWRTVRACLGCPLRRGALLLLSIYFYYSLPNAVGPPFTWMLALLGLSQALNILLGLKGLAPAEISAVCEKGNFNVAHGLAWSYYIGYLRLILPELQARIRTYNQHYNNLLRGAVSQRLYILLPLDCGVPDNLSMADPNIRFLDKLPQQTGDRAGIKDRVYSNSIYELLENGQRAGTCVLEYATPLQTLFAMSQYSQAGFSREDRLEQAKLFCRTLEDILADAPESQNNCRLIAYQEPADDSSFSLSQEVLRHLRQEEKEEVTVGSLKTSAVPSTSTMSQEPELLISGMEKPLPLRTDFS

EC50 [nM]	Structure (SMILES)
1000 to 10000	Cc1nn(C)c(CN2C(=O)N(C)Cc3ccc(C(=O)NCc4c(F)cc(F)cc4F)cc32)c1Br [Example 67, 1-((4-bromo-1,3-dimethyl-1H-pyrazol-5-yl)methyl)-3-methyl-2-oxo-N-(2,4,6-trifluorobenzyl)-1,2,3,4-tetrahydroquinazoline-7-carboxamide]
1000 to 10000	CN1Cc2ncc(C(=O)NCc3c(F)cc(F)cc3F)cc2N(Cc2c(F)cccc2Cl)C1=O [Example 71, 1-(2-chloro-6-fluorobenzyl)-3-methyl-2-oxo-N-(2,4,6-trifluorobenzyl)-1,2,3,4-tetrahydropyrido[3,2-d]pyrimidine-7-carboxamide]
> 10000	CN1Cc2ncc(C(=O)NCc3cc4ccccc4o3)cc2N(Cc2c(F)cccc2Cl)C1=O [Example 73, N-(benzofuran-2-ylmethyl)-1-(2-chloro-6-fluorobenzyl)-3-methyl-2-oxo-1,2,3,4-tetrahydropyrido[3,2-d]pyrimidine-7-carboxamide]
1000 to 10000	CC(=O)Nc1cccc(F)c1CN1C(=O)N(C)C(C)c2ccc(C(=O)NCc3c(F)cc(F)cc3F)cc21 (centres unmarked) [Example 226, 1-(2-acetamido-6-fluorobenzyl)-3,4-dimethyl-2-oxo-N-(2,4,6-trifluorobenzyl)-1,2,3,4-tetrahydroquinazoline-7-carboxamide]
< 1000	C[C@H]1c2ccc(C(=O)NCc3c(F)cc(F)cc3F)cc2N(Cc2c(F)ccc(C(N)=O)c2Cl)C(=O)N1C [Example 186, (S)-1-(3-carbamoyl-2-chloro-6-fluorobenzyl)-3,4-dimethyl-2-oxo-N-(2,4,6-trifluorobenzyl)-1,2,3,4-tetrahydroquinazoline-7-carboxamide]
1000 to 10000	CC1c2ccc(C(=O)NCc3ccccc3)cc2N(Cc2ccccc2)C(=O)N1C (centres unmarked) [Example 214, N,1-dibenzyl-3,4-dimethyl-2-oxo-1,2,3,4-tetrahydroquinazoline-7-carboxamide]
< 1000	COc1cccc(F)c1CN1C(=O)N(C)Cc2ccc(C(=O)NCc3c(F)cc(F)cc3F)cc21 [Example 10, 1-(2-fluoro-6-methoxybenzyl)-3-methyl-2-oxo-N-(2,4,6-trifluorobenzyl)-1,2,3,4-tetrahydroquinazoline-7-carboxamide]
< 1000	CC1c2ccc(C(=O)NCc3c(F)cc(F)cc3F)cc2N(Cc2c(F)cccc2F)C(=O)N1C (centres unmarked) [Example 205, 1-(2,6-difluorobenzyl)-3,4-dimethyl-2-oxo-N-(2,4,6-trifluorobenzyl)-1,2,3,4-tetrahydroquinazoline-7-carboxamide]
> 10000	CN1Cc2ccc(C(=O)NCc3cccc(-c4ncco4)c3)cc2N(Cc2c(F)cccc2Cl)C1=O [Example 25, 1-(2-chloro-6-fluorobenzyl)-3-methyl-N-(3-(oxazol-2-yl)benzyl)-2-oxo-1,2,3,4-tetrahydroquinazoline-7-carboxamide]
< 1000	CC1c2ccc(C(=O)NCc3c(F)cc(F)cc3F)cc2N(Cc2cc(F)cc(F)c2)C(=O)N1C (centres unmarked) [Example 157, 1-(3,5-difluorobenzyl)-3,4-dimethyl-2-oxo-N-(2,4,6-trifluorobenzyl)-1,2,3,4-tetrahydroquinazoline-7-carboxamide]
< 1000	CC1c2ccc(C(=O)NCc3c(F)cc(F)cc3F)cc2N(Cc2ccccc2)C(=O)N1C (centres unmarked) [Example 192, 1-benzyl-3,4-dimethyl-2-oxo-N-(2,4,6-trifluorobenzyl)-1,2,3,4-tetrahydroquinazoline-7-carboxamide]
> 10000	C[C@H]1c2ccc(C(=O)NCc3cccc(OCCO)c3F)cc2N(Cc2c(F)cccc2Cl)C(=O)N1C [Example 276, (S)-1-(2-chloro-6-fluorobenzyl)-N-(2-fluoro-3-(2-hydroxyethoxy)benzyl)-3,4-dimethyl-2-oxo-1,2,3,4-tetrahydroquinazoline-7-carboxamide]
1000 to 10000	CON1Cc2ccc(C(=O)NCc3c(F)cc(F)cc3F)cc2N(Cc2c(F)cccc2Cl)C1=O [Example 49, 1-(2-chloro-6-fluorobenzyl)-3-methoxy-2-oxo-N-(2,4,6-trifluorobenzyl)-1,2,3,4-tetrahydroquinazoline-7-carboxamide]
< 1000	CN1Cc2ccc(C(=O)NCc3ccc(F)cc3F)cc2N(Cc2cc(F)cc(F)c2)C1=O [Example 4, N-(2,4-difluorobenzyl)-1-(3,5-difluorobenzyl)-3-methyl-2-oxo-1,2,3,4-tetrahydroquinazoline-7-carboxamide]
< 1000	Cc1cccc(F)c1CN1C(=O)N(C)Cc2ccc(C(=O)NCc3c(F)cc(F)cc3F)cc21 [Example 9, 1-(2-fluoro-6-methylbenzyl)-3-methyl-2-oxo-N-(2,4,6-trifluorobenzyl)-1,2,3,4-tetrahydroquinazoline-7-carboxamide]
< 1000	CC1c2ccc(C(=O)NCc3c(F)cc(F)cc3F)cc2N(Cc2ccccc2)C(=O)N1C (centres unmarked) [Example 190, 1-benzyl-3,4-dimethyl-2-oxo-N-(2,4,6-trifluorobenzyl)-1,2,3,4-tetrahydroquinazoline-7-carboxamide]
< 1000	CC1c2ccc(C(=O)NCc3c(F)cc(F)cc3F)cc2N(Cc2cc(OCCO)ccc2F)C(=O)N1C (centres unmarked) [Example 233, 1-(2-fluoro-5-(2-hydroxyethoxy)benzyl)-3,4-dimethyl-2-oxo-N-(2,4,6-trifluorobenzyl)-1,2,3,4-tetrahydroquinazoline-7-carboxamide]
1000 to 10000	CN1Cc2ccc(C(=O)NCc3c(F)cc(F)cc3F)cc2N(Cc2c(F)cccc2C(F)(F)F)C1=O [Example 56, 1-(2-fluoro-6-(trifluoromethyl)benzyl)-3-methyl-2-oxo-N-(2,4,6-trifluorobenzyl)-1,2,3,4-tetrahydroquinazoline-7-carboxamide]
< 1000	Cc1nn(C)c(CN2C(=O)N(C)C(C)c3ccc(C(=O)NCc4cc5cc(F)ccc5o4)cc32)c1F (centres unmarked) [Example 224, 1-((4-fluoro-1,3-dimethyl-1H-pyrazol-5-yl)methyl)-N-((5-fluorobenzofuran-2-yl)methyl)-3,4-dimethyl-2-oxo-1,2,3,4-tetrahydroquinazoline-7-carboxamide]
1000 to 10000	O=C(NCc1c(F)cc(F)cc1F)c1ccc2c(c1)N(Cc1cc(F)cc(F)c1)C(=O)NC2 [Example 18, 1-(3,5-difluorobenzyl)-2-oxo-N-(2,4,6-trifluorobenzyl)-1,2,3,4-tetrahydroquinazoline-7-carboxamide]
1000 to 10000	CN1Cc2ccc(C(=O)NCc3c(F)cc(F)cc3F)cc2N(Cc2cc(F)cc(F)c2)S1(=O)=O [Example 70, 1-(3,5-difluorobenzyl)-3-methyl-N-(2,4,6-trifluorobenzyl)-3,4-dihydro-1H-benzo[c][1,2,6]thiadiazine-7-carboxamide 2,2-dioxide]
< 1000	C[C@H]1c2ccc(C(=O)NCc3cc(O)cc(F)c3)cc2N(Cc2c(F)cccc2Cl)C(=O)N1C [Example 250, (S)-1-(2-chloro-6-fluorobenzyl)-N-(3-fluoro-5-hydroxybenzyl)-3,4-dimethyl-2-oxo-1,2,3,4-tetrahydroquinazoline-7-carboxamide]
< 1000	CC1c2ccc(C(=O)NCc3c(F)cc(F)cc3F)cc2N(Cc2ccc(O)cc2F)C(=O)N1C (centres unmarked) [Example 181, 1-(2-fluoro-4-hydroxybenzyl)-3,4-dimethyl-2-oxo-N-(2,4,6-trifluorobenzyl)-1,2,3,4-tetrahydroquinazoline-7-carboxamide]
